Reference: patent US20250121067A1, “WATER-SOLUBLE CANNABINOID PRODRUGS COMPOSITIONS AND METHODS OF SYNTHESIZING THE SAME” (Trait Biosciences, Inc., priority 2022, published 2025)

Columns and labels:
[1] = intrinsic aqueous solubility; Int. J. Pharmaceutics 2020, 589, 119812; cited from earlier work
[2] = physchem; details: aqueous medium, thermodynamic from solid, room temperature
Description: The thermodynamic aqueous solubility of CBD and CBG glycine conjugates in salt forms was determined using the equilibrium shake method outlined in the United States Pharmacopeia (USP) General Chapter <1236>Solubility Measurements (Table 1).

[3] = Solubility (mg/mL) CBD/CBG equivalent, expressed as CBD/CBG equivalent
[4] = Solubility (mg/mL) Salt derivative, expressed as salt derivative

For C=C(C)[C@@H]1CCC(C)=C[C@H]1c1c(O)cc(CCCCC)cc1O [CBD, cannabidiol], the “solubility of CBD” value [1] is listed as 0.1 µg/mL.
For C=C(C)[C@@H]1CCC(C)=C[C@H]1c1c(O)cc(CCCCC)cc1OC(=O)NCC(=O)[O-].[Na+] [Example 3, Sodium ((((1′R,2′R)-6-hydroxy-5′-methyl-4-pentyl-2′-(prop-1-en-2-yl)-1′,2′,3′,4′-tetrahydro-[1,1′-biphenyl]-2-yl)oxy)carbonyl)glycinate], the solubility [2, 3] was 3140 µg/mL and the solubility [2, 4] was 4370 µg/mL.
Compound CCCCCc1cc(O)c(C/C=C(\C)CCC=C(C)C)c(OC(=O)NCC(=O)[O-])c1.[Na+] [Example 10, Sodium (E)-((2-(3,7-dimethylocta-2,6-dien-1-yl)-3-hydroxy-5-pentylphenoxy)carbonyl)glycinate] has a solubility [2, 3] of 10000 µg/mL and a solubility [2, 4] of 13300 µg/mL.
